In patent US5030760A, “Tetrahydrophthalimides, and their production and use” (Sumitomo Chemical Company, Ltd., priority 1981, dated 1991):

Columns and labels:
corn [1] = assay: Test Example 1, foliar treatment, phytotoxicity to corn; format: in vivo; conditions: 3 weeks; also: ranges in brackets are in %
Summary of the method: (§1)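 Crops and weeds sown in upland soil, greenhouse-grown 2 weeks, then sprayed on foliage with compound as emulsifiable concentrate in water plus spreading agent at 5 liters per are. Scored 3 weeks later from aerial fresh weight as percent of untreated plants, converted to a rating scale.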

barnyardgrass [2] = assay: Test Example 1, foliar treatment, herbicidal activity; format: in vivo, Echinochloa crus-galli; conditions: 3 weeks; also: ranges in brackets are in %
Summary of the method: as §1

wild oat = assay: as above; format: in vivo, Avena fatua; conditions: 3 weeks; also: ranges in brackets are in %
Summary of the method: as §1

wild mustard = assay: as above; format: in vivo, Brassica kaber; conditions: 3 weeks
Summary of the method: as §1

velvetleaf [3] = assay: as above; format: in vivo, Abutilon theophrasti; conditions: 3 weeks
Summary of the method: as §1

corn [4] = assay: Test Example 4, pre-emergence treatment, phytotoxicity to corn; format: in vivo; conditions: 20 days; also: ranges in brackets are in %
Description: (§2) The application of the tetrahydrophthalimides (I) as herbicides will be illustratively shown in the following Examples wherein the phytotoxicity to cultivated plants and the herbicidal activity on weeds were evaluated as follows: the aerial parts of the test plants were cut off and weighed (fresh weight); the percentage of the fresh weight of the treated plant to that of the untreated plant was calculated with the latter fresh weight taken as 100; and the crop damage and the herbicidal activity were evaluated by the standard given in the table below. The rating values of phytotoxicity, 0 and 1, and those of herbicidal effect, 5 and 4, are generally regarded as satisfactory to protect cultivated plants and control weeds, respectively. The rating values in the paddy field test alone were calculated from the dry weight of the test plants.
(§3) Plastic beakers (diameter, 10 cm; height, 10 cm) were filled with upland field soil, and the seeds of corn, cotton and soybean and the seeds of morningglory, velvetleaf, Johnsongrass and green foxtail were separately sown in the beakers. A designed amount of the test compound was sprayed over the top by means of a small hand sprayer. After the spraying, the test plants were grown for 20 days in the greenhouse, and herbicidal activity and phytotoxicity were examined. In this pre-emergence treatment, the test compounds were formulated into an emulsifiable concentrate according to Preparation Example 2 and applied at a spray volume of 5 liters per are by dispersing it in water with the addition of a spreading agent.

cotton = assay: Test Example 4, pre-emergence treatment, phytotoxicity to cotton; format: in vivo; conditions: 20 days; also: ranges in brackets are in %
Description: as §2, §3

soybean [5] = assay: Test Example 4, pre-emergence treatment, phytotoxicity to soybean; format: in vivo; conditions: 20 days; also: ranges in brackets are in %
Description: as §2, §3

morningglory = assay: Test Example 4, pre-emergence treatment, herbicidal activity; format: in vivo; conditions: 20 days; also: ranges in brackets are in %
Description: as §2, §3

velvetleaf [6] = assay: as above; format: in vivo, Abutilon theophrasti; conditions: 20 days
Description: as §2, §3

Johnsongrass [7] = assay: as above; format: in vivo, Sorghum halepense; conditions: 20 days
Description: as §2, §3

green foxtail [8] = assay: as above; format: in vivo, Setaria viridis; conditions: 20 days
Description: as §2, §3

soybean [9] = assay: Test Example 5, spraying over the top, phytotoxicity to soybean; format: in vivo; conditions: sprayed over the top, 20 days; also: ranges in brackets are in %
Description: as §2
(§4) Plastic trays (35 cm×25 cm×15 cm) were filled with upland field soil, and the seeds of tall morningglory, velvetleaf, jimsonweed, sicklepod, hemp sesbania, prickly side, Johnsongrass, green foxtail and large crabgrass and the seeds of soybean were sown therein. A designed amount of the test compound formulated into a wettable powder according to Preparation Example 1 and dispersed in water was sprayed over the top by means of a small hand sprayer at a spray volume of 5 liters per are. After the spraying, the test plants were grown in greenhouse for 20 days, and phytotoxicity and herbicidal activity were examined.

tall morningglory = assay: Test Example 5, spraying over the top, herbicidal activity; format: in vivo, Ipomoea purpurea; conditions: sprayed over the top, 20 days; also: ranges in brackets are in %
Description: as §2, §4

velvetleaf [10] = assay: as above; format: in vivo, Abutilon theophrasti; conditions: sprayed over the top, 20 days
Description: as §2, §4

jimsonweed = assay: as above; format: in vivo, Datura stramonium; conditions: sprayed over the top, 20 days; also: ranges in brackets are in %
Description: as §2, §4

hemp sesbania = assay: as above; format: in vivo, Sesbania exaltator; conditions: sprayed over the top, 20 days; also: ranges in brackets are in %
Description: as §2, §4

prickly sida = assay: as above; format: in vivo, Sida spinosa; conditions: sprayed over the top, 20 days; also: ranges in brackets are in %
Description: as §2, §4

sicklepod = assay: as above; format: in vivo, Cassia obtusifolia; conditions: sprayed over the top, 20 days; also: ranges in brackets are in %
Description: as §2, §4

green foxtail [11] = assay: as above; format: in vivo, Setaria viridis; conditions: sprayed over the top, 20 days
Description: as §2, §4

large crabgrass = assay: as above; format: in vivo, Digitaria sanguinalis; conditions: sprayed over the top, 20 days; also: ranges in brackets are in %
Description: as §2, §4

Johnsongrass [12] = assay: as above; format: in vivo, Sorghum halepense; conditions: sprayed over the top, 20 days
Description: as §2, §4

rice plant = assay: Test Example 6, paddy pot perfusion, phytotoxicity to rice plant; format: in vivo; conditions: 3 weeks, dry weight; also: ranges in brackets are in %
Description: as §2
(§5) Wagner's pots (1/5000 are) were filled with paddy field soil containing the seeds of broad-leaved weeds (e.g. monochoria, false pimpernel, toothcup) and the seeds of barnyardgrass and hardstem bulrush, and water was poured therein until the depth of water became 4 cm. Rice seedlings of the 3.5-leaf stage and the tubers of arrowhead were transplanted therein and grown for 2 days in a greenhouse. A designed amount of the test compound formulated in an emulsifiable concentrate according to Preparation Example 2 was applied to the pots by perfusion. Thereafter, the test plants were grown for an additional 3 weeks in the greenhouse, and herbicidal activity and phytotoxicity were examined. In this treatment, the emulsifiable concentrate was dispersed in water for application at a perfusion volume of 10 liters per are.

barnyardgrass [13] = assay: Test Example 6, paddy pot perfusion, herbicidal activity; format: in vivo, Echinochloa crus-galli; conditions: 3 weeks, dry weight; also: ranges in brackets are in %
Description: as §2, §5

broad-leaved weed = assay: as above; format: in vivo, monochoria, false pimpernel, toothcup; conditions: 3 weeks, dry weight; also: ranges in brackets are in %
Description: as §2, §5

hardstem bulrush = assay: as above; format: in vivo, Scirpus juncoides; conditions: 2.5 g/are, 3 weeks, dry weight; also: ranges in brackets are in %
Description: as §2, §5

arrowhead = assay: as above; format: in vivo, Sagittaria pygmaea; conditions: 3 weeks, dry weight; also: ranges in brackets are in %
Description: as §2, §5
For Herbicidal activity, Green foxtail in this document: ranges in brackets are in %.
For Herbicidal activity, Johnsongrass in this document: ranges in brackets are in %.
For Herbicidal activity, Velvetleaf in this document: ranges in brackets are in %.

COc1cc(N2C(=O)C3=C(CCCC3)C2=O)c(F)cc1Cl [Compound No. 1]
Phytotoxicity, Corn (corn [1]; 1.25 g/are): 0 (100)
Phytotoxicity, Corn (corn [1]; 5 g/are): 1 (90-99)
Herbicidal activity, Barnyardgrass (barnyardgrass [2]; 1.25 g/are): 1 (41-60)
Herbicidal activity, Barnyardgrass (barnyardgrass [2]; 5 g/are): 5 (0)
Herbicidal activity, Wild cat (wild oat; 1.25 g/are): 1 (41-60)
Herbicidal activity, Wild cat (wild oat; 5 g/are): 5 (0)
Herbicidal activity, Wild mustard (wild mustard; 1.25 g/are): 5 (0)
Herbicidal activity, Wild mustard (wild mustard; 5 g/are): 5 (0)
Herbicidal activity, Velvetleaf (velvetleaf [3]; 1.25 g/are): 5 (0)
Herbicidal activity, Velvetleaf (velvetleaf [3]; 5 g/are): 5 (0)
Phytotoxicity, Corn (corn [4]; 2.5 g/are): 1 (90-99)
Phytotoxicity, Corn (corn [4]; 10 g/are): 2 (80-89)
Phytotoxicity, Cotton (cotton; 2.5 g/are): 0 (100)
Phytotoxicity, Cotton (cotton; 10 g/are): 2 (80-89)
Phytotoxicity, Soybean (soybean [5]; 2.5 g/are): 0 (100)
Phytotoxicity, Soybean (soybean [5]; 10 g/are): 0 (100)
Herbicidal activity, Morningglory (morningglory; 2.5 g/are): 4 (1-10)
Herbicidal activity, Morningglory (morningglory; 10 g/are): 5 (0)
Herbicidal activity, Velvetleaf (velvetleaf [6]; 2.5 g/are): 5 (0)
Herbicidal activity, Velvetleaf (velvetleaf [6]; 10 g/are): 5 (0)
Herbicidal activity, Johnsongrass (Johnsongrass [7]; 2.5 g/are): 5 (0)
Herbicidal activity, Johnsongrass (Johnsongrass [7]; 10 g/are): 5 (0)
Herbicidal activity, Green foxtail (green foxtail [8]; 2.5 g/are): 4 (1-10)
Herbicidal activity, Green foxtail (green foxtail [8]; 10 g/are): 5 (0)
Phytotoxicity, Soybean (soybean [9]; 3 g/are): 0 (100)
Phytotoxicity, Soybean (soybean [9]; 9 g/are): 0 (100)
Herbicidal activity, Tall morningglory (tall morningglory; 3 g/are): 4 (1-10)
Herbicidal activity, Tall morningglory (tall morningglory; 9 g/are): 5 (0)
Herbicidal activity, Velvetleaf (velvetleaf [10]; 3 g/are): 5 (0)
Herbicidal activity, Velvetleaf (velvetleaf [10]; 9 g/are): 5 (0)
Herbicidal activity, Jimsonweed (jimsonweed; 3 g/are): 5 (0)
Herbicidal activity, Jimsonweed (jimsonweed; 9 g/are): 5 (0)
Herbicidal activity, Hemp sesbania (hemp sesbania; 3 g/are): 5 (0)
Herbicidal activity, Hemp sesbania (hemp sesbania; 9 g/are): 5 (0)
Herbicidal activity, Prickly sida (prickly sida; 3 g/are): 5 (0)
Herbicidal activity, Prickly sida (prickly sida; 9 g/are): 5 (0)
Herbicidal activity, Sicklepod (sicklepod; 3 g/are): 4 (1-10)
Herbicidal activity, Sicklepod (sicklepod; 9 g/are): 5 (0)
Herbicidal activity, Green foxtail (green foxtail [11]; 3 g/are): 5 (0)
Herbicidal activity, Green foxtail (green foxtail [11]; 9 g/are): 5 (0)
Herbicidal activity, Large crabgrass (large crabgrass; 3 g/are): 5 (0)
Herbicidal activity, Large crabgrass (large crabgrass; 9 g/are): 5 (0)
Herbicidal activity, Johnsongrass (Johnsongrass [12]; 3 g/are): 5 (0)
Herbicidal activity, Johnsongrass (Johnsongrass [12]; 9 g/are): 5 (0)
Phytotoxicity, Rice plant (rice plant; 1.25 g/are): 1 (90-99)
Phytotoxicity, Rice plant (rice plant; 2.5 g/are): 1 (90-99)
Herbicidal activity, Barnyardgrass (barnyardgrass [13]; 1.25 g/are): 4 (1-10)
Herbicidal activity, Barnyardgrass (barnyardgrass [13]; 2.5 g/are): 5 (0)
Herbicidal activity, Broad-leaved weed (broad-leaved weed; 1.25 g/are): 5 (0)
Herbicidal activity, Broad-leaved weed (broad-leaved weed; 2.5 g/are): 5 (0)
Herbicidal activity, Hardstem bulrush (hardstem bulrush): 4 (1-10)
Herbicidal activity, Arrowhead (arrowhead; 1.25 g/are): 4 (1-10)
Herbicidal activity, Arrowhead (arrowhead; 2.5 g/are): 5 (0)
